Measurements: patent EP0578521B1, “New peptide derivatives with bradykinin-antagonistic activity, process to prepare them and pharmaceutical compositions containing them” (ADIR ET COMPAGNIE, priority 1992, dated 1996)
Like-named read-outs stand apart in the source and are kept apart here. Square brackets hold non-standard residues; d marks the D form. Peptide text beside a SMILES is read from it. * marks the point of attachment. Benzoyl(4-guanidino) = N=C(N)Nc1ccc(C(=O)*)cc1; Oic = O=C(O)[C@@H]1C[C@@H]2CCCC[C@@H]2N1; Hyp = O=C(O)[C@@H]1C[C@@H](O)CN1; dTic = O=C(O)[C@H]1Cc2ccccc2CN1; 2Thi = N[C@@H](Cc1cccs1)C(=O)O; Agp = N=C(N)NC[C@H](N)C(=O)O

Tests used:
Récepteur B2 = format: cell-based, lapin
Method: Exemple 44 : Mesure in vitro de l'effet des dérivés de l'invention vis à vis de la réponse contractile du muscle lisse de la veine jugulaire de lapin induite par la bradykinine
Cette étude a été réalisée selon le protocole décrit par D. REGOLI et J. BARABE (Récepteur B2-Pharmacology of Bradykinin and related kinins, Pharm. Rev., 32, 1, 1-46, 1980). Des anneaux de veine jugulaire sont suspendus dans des chambres d'organes (40 ml) contenant une solution de KREBS thermostatée à 37°C, oxygénée en permanence par un bullage de 95 % 02/5 % CO2. La force isométrique développée par les anneaux est mesurée et enregistrée. La tension de base est d'environ 2 g. Les cuves reçoivent les concentrations du dérivé de l'invention à tester (10^-8M à 10^-5M), une cuve contrôle reçoit le solvant. Une courbe concentration réponse à la bradykinine est réalisée de 10^-10M à 10^-5M avec une progression par demi-log. La puissance des antagonistes à la bradykinine est mesurée à partir des courbes log dose-effet permettant la détermination des pA2 (logarithme négatif de la concentration molaire du dérivé de l'invention qui oblige à doubler la concentration de bradykinine pour obtenir le même effet). Lors de ce test, les dérivés de l'invention ont un pA2 compris entre 9 et 10. Plus particulièrement, le pA2 du composé de l'exemple 2 est égal à 9,1 ± 0,1, celui de l'exemple 3 est égal à 9,4 ± 0,1, celui de l'exemple 5 est égal à 9,3 ± 0,1.

[1] = tested on: oedème de la patte de rat induite par injection de carragénine; settings: rat, 0,1 mg/kg I.V., at time 1 hour, versus vehicle control group
Excerpt: L'activité anti-inflammatoire des dérivés de l'invention a été mesurée en utilisant le modèle de l'oedème de la patte de rat induite par injection de carragénine (WINTER G. A. et coll. Proc. Soc. Exp. Biol. Med., 3, 544-547, 1960). Cette étude est effectuée sur rats mâles de 180-210 g par lot de 8. Les dérivés de l'invention sont administrés par voie I.V. au temps 0 précédant immédiatement l'injection de carragénine par voie sous-cutanée dans la plante de la patte arrière droite du rat (Carragénine lambda type IV, sigma, solution à 1 %, volume injecté 0,1 ml). Le volume de la patte aux différents temps de l'expérimentation est mesurée par plethysmographie. L'inhibition de l'oedème au temps 3 heures est calculée par rapport à un lot contrôle ayant reçu le véhicule et exprimée en pourcentage d'inhibition.

[2] = antagonism of bradykinin concentration-response curve (10^-10M to 10^-5M), rabbit jugular vein rings, compound 10^-8M to 10^-5M, 37°C

Compound | pA2 (Récepteur B2) | inhibition de l'oedème [1] | pA2 (Récepteur B2; [2])
N=C(N)NCCC[C@H](NC(=O)c1ccc(NC(=N)N)cc1)C(=O)N1CCC[C@H]1C(=O)N1C[C@H](O)C[C@H]1C(=O)NCC(=O)N[C@@H](Cc1cccs1)C(=O)N[C@@H](CO)C(=O)N1Cc2ccccc2C[C@@H]1C(=O)N1[C@H](C(=O)N[C@@H](CNC(=N)N)C(=O)O)C[C@@H]2CCCC[C@@H]21 [Exemple 5, Gba-Arg-Pro-Hyp-Gly-Thi-Ser-tic-Oic-Gpr-OH] ({Benzoyl(4-guanidino)}-RP[Hyp]G[2Thi]S[dTic][Oic][Agp]-OH) | 9,3 ± 0,1 | – | –
arg-Arg-Pro-Hyp-Gly-Thi-Ser-[3,2-c]ttp-Oic-Arg [Exemple 3] | – | 36% | 9,4 ± 0,1
Gba-Arg-Pro-Hyp-Gly-Thi-Ser-[3,2-c]ttp-Oic-Arg [Exemple 2] | – | 36% | 9,1 ± 0,1
